# Measurements from US6613718B2, “Aryl ether derivatives and processes for their preparation and herbicidal and desiccant compositions containing them” (Ishihara Sangyo Kaisha, Ltd., priority 2001, dated 2003).
# Columns and labels:
# Assay type in all cases: in vivo
# [1] = test system: barnyardgrass (Echinochloa crus-galli, ECHCG); assay: Pre-emerge greenhouse herbicide activity screening, phytotoxicity rating; conditions: 14 days after application
# Description: (§1) A standard greenhouse herbicide activity screening system was used to evaluate the herbicidal efficacy and crop safety of these test compounds. Seven broadleaf weed species including redroot pigweed (Amaranthus retroflexus, AMARE), velvetleaf (Abutilon theophrasti, ABUTH), sicklepod (Cassia obtusifolia, CASOB), ivyleaf morningglory (Ipomoea hederacea, IPOHE), lambsquarters (Chenopodium album, CHEAL), common ragweed (Ambrosia artemisiifolia L., AMBEL), and cocklebur (Xanthium strumarium, XANST) were used as test species. Four grass weed species including green foxtail (Setaria viridis, SETVI), barnyardgrass (Echinochloa crus-galli, ECHCG), johnsongrass (Sorghum halepense, SORHA), and large crabgrass (Digitaria sanguinalis, DIGSA) were also used. In addition, three crop species, field corn (Zea mays L., var. Dekalb 535, CORN), soybean (Glycine max L., var. Pella 86, SOY), and upland rice (Oryza sp., var.Tebonnet, RICE) were included.
# (§2) All plants were grown in 10 cm square plastic pots which were filled with a sandy loam soil mix. For pre-emerge tests, seeds were planted one day prior to application of the test compounds. For post-emerge tests, seeds were planted 8-21 days prior to the test to allow emergence and good foliage development prior to application of the test substances. At the time of the post-emerge application, plants of all species were usually at the 2-3 leaf stage of development.
# (§3) All test compounds were dissolved in acetone and applied to the test units in a volume of 187 1/ha. Test materials were applied at rates ranging from 15 g ai/ha to 1000 g ai/ha using a track sprayer equipped with a TJ8001E even flow flat fan spray nozzle. Plants were arranged on a shelf so that the top of the canopy (post-emerge) or top of the soil surface (pre-emerge) was 40-45 cm below the nozzle. Pressurized air was used to force the test solution through the nozzle as it was mechanically advanced (via electrically driven chain drive) over the top of all test plants/pots. This application simulates a typical commercial field herbicide application.
# (§4) In the post-emerge test, a commercial non-ionic surfactant was also included (0.25% v/v) to enhance wetting of the leaf surfaces of target plants. Immediately after application, test units of the pre-emerge applications were watered at the soil surface to incorporate the test materials. Subsequently, these test units were bottom-watered. Post-emerge test units were always bottom-watered.
# (§5) At 14 days after application of the test materials, phytotoxicity ratings were recorded. A rating scale of 0-100 was used as previously described in Research Methods in Weed Science, 2nd edition, B. Truelove, Ed., Southern Weed Science Society, Auburn University, Auburn, Ala., 1977. Briefly, “0” corresponds to no damage and “100” corresponds to complete death of all plants in the test unit. This scale was used both to determine efficacy against weed species and damage to crop species. Herbicide activity data for various compounds of this invention, which are shown by compound No. in Tables I-VI, are shown in Tables VIII-IX.
# [2] = test system: common ragweed (Ambrosia artemisiifolia L., AMBEL); assay: as above; conditions: 14 days after application
# Description: as §1, §2, §3, §4, §5
# [3] = test system: green foxtail (Setaria viridis, SETVI); assay: as above; conditions: 14 days after application
# Description: as §1, §2, §3, §4, §5
# [4] = test system: ivyleaf morningglory (Ipomoea hederacea, IPOHE); assay: as above; conditions: 14 days after application
# Description: as §1, §2, §3, §4, §5
# [5] = test system: johnsongrass (Sorghum halepense, SORHA); assay: as above; conditions: 14 days after application
# Description: as §1, §2, §3, §4, §5
# [6] = test system: lambsquarters (Chenopodium album, CHEAL); assay: as above; conditions: 14 days after application
# Description: as §1, §2, §3, §4, §5
# [7] = test system: large crabgrass (Digitaria sanguinalis, DIGSA); assay: as above; conditions: 14 days after application
# Description: as §1, §2, §3, §4, §5
# [8] = test system: redroot pigweed (Amaranthus retroflexus, AMARE); assay: as above; conditions: 14 days after application
# Description: as §1, §2, §3, §4, §5
# [9] = test system: sicklepod (Cassia obtusifolia, CASOB); assay: as above; conditions: 14 days after application
# Description: as §1, §2, §3, §4, §5
# [10] = test system: velvetleaf (Abutilon theophrasti, ABUTH); assay: as above; conditions: 14 days after application
# Description: as §1, §2, §3, §4, §5
# [11] = test system: field corn (Zea mays L., var. Dekalb 535, CORN); assay: Pre-emerge greenhouse screening, crop safety (phytotoxicity rating); conditions: 14 days after application
# Description: as §1, §2, §3, §4, §5
# [12] = test system: soybean (Glycine max L., var. Pella 86, SOY); assay: as above; conditions: 14 days after application
# Description: as §1, §2, §3, §4, §5
# [13] = test system: upland rice (Oryza sp., var.Tebonnet, RICE); assay: as above; conditions: 14 days after application
# Description: as §1, §2, §3, §4, §5
# [14] = test system: barnyardgrass (Echinochloa crus-galli, ECHCG); assay: Post-emerge greenhouse herbicide activity screening, phytotoxicity rating; conditions: 14 days after application
# Description: as §1, §2, §3, §4, §5
# [15] = test system: common ragweed (Ambrosia artemisiifolia L., AMBEL); assay: as above
# Description: as §1, §2, §3, §4, §5
# [16] = test system: green foxtail (Setaria viridis, SETVI); assay: as above
# Description: as §1, §2, §3, §4, §5
# [17] = test system: ivyleaf morningglory (Ipomoea hederacea, IPOHE); assay: as above; conditions: 14 days after application
# Description: as §1, §2, §3, §4, §5
# [18] = test system: johnsongrass (Sorghum halepense, SORHA); assay: as above; conditions: 14 days after application
# Description: as §1, §2, §3, §4, §5
# [19] = test system: lambsquarters (Chenopodium album, CHEAL); assay: as above
# Description: as §1, §2, §3, §4, §5
# [20] = test system: large crabgrass (Digitaria sanguinalis, DIGSA); assay: as above; conditions: 14 days after application
# Description: as §1, §2, §3, §4, §5
# [21] = test system: redroot pigweed (Amaranthus retroflexus, AMARE); assay: as above
# Description: as §1, §2, §3, §4, §5
# [22] = test system: sicklepod (Cassia obtusifolia, CASOB); assay: as above
# Description: as §1, §2, §3, §4, §5
# [23] = test system: velvetleaf (Abutilon theophrasti, ABUTH); assay: as above; conditions: 14 days after application
# Description: as §1, §2, §3, §4, §5
# [24] = test system: field corn (Zea mays L., var. Dekalb 535, CORN); assay: Post-emerge greenhouse screening, crop safety / corn selectivity (phytotoxicity rating); conditions: 14 days after application
# Description: as §1, §2, §3, §4, §5
# [25] = test system: soybean (Glycine max L., var. Pella 86, SOY); assay: Post-emerge greenhouse screening, crop safety (phytotoxicity rating); conditions: 14 days after application
# Description: as §1, §2, §3, §4, §5
# [26] = test system: upland rice (Oryza sp., var.Tebonnet, RICE); assay: as above; conditions: 14 days after application
# Description: as §1, §2, §3, §4, §5
# [27] = 125 g ai/ha, 14 days after application
# [28] = 250 g ai/ha, 14 days after application
smiles,measurement,setting,value
Cn1c(C(F)(F)F)cc(=O)n(-c2cc(Oc3ccccc3[N+](=O)[O-])c(Cl)cc2F)c1=S [Compound 1-49],ECHCG phytotoxicity rating (0-100 scale),[1]; 125 g ai/ha,45
same,ECHCG phytotoxicity rating (0-100 scale),[1]; 250 g ai/ha,98
same,AMBEL phytotoxicity rating (0-100 scale),[2]; 125 g ai/ha,70
same,AMBEL phytotoxicity rating (0-100 scale),[2]; 250 g ai/ha,80
same,SETVI phytotoxicity rating (0-100 scale),[3]; 125 g ai/ha,99
same,SETVI phytotoxicity rating (0-100 scale),[3]; 250 g ai/ha,100
same,IPOHE phytotoxicity rating (0-100 scale),[4]; 125 g ai/ha,75
same,IPOHE phytotoxicity rating (0-100 scale),[4]; 250 g ai/ha,80
same,SORHA phytotoxicity rating (0-100 scale),[5]; 125 g ai/ha,40
same,SORHA phytotoxicity rating (0-100 scale),[5]; 250 g ai/ha,60
same,CHEAL phytotoxicity rating (0-100 scale),[6]; 125 g ai/ha,100
same,CHEAL phytotoxicity rating (0-100 scale),[6]; 250 g ai/ha,100
same,DIGSA phytotoxicity rating (0-100 scale),[7]; 125 g ai/ha,95
same,DIGSA phytotoxicity rating (0-100 scale),[7]; 250 g ai/ha,99
same,AMARE phytotoxicity rating (0-100 scale),[8]; 125 g ai/ha,100
same,AMARE phytotoxicity rating (0-100 scale),[8]; 250 g ai/ha,100
same,CASOB phytotoxicity rating (0-100 scale),[9]; 125 g ai/ha,50
same,CASOB phytotoxicity rating (0-100 scale),[9]; 250 g ai/ha,70
same,ABUTH phytotoxicity rating (0-100 scale),[10]; 125 g ai/ha,95
same,ABUTH phytotoxicity rating (0-100 scale),[10]; 250 g ai/ha,100
same,"CORN crop damage, phytotoxicity rating (0-100 scale)",[11]; 125 g ai/ha,0
same,"CORN crop damage, phytotoxicity rating (0-100 scale)",[11]; 250 g ai/ha,0
same,"SOY crop damage, phytotoxicity rating (0-100 scale)",[12]; 125 g ai/ha,0
same,"SOY crop damage, phytotoxicity rating (0-100 scale)",[12]; 250 g ai/ha,0
same,"RICE crop damage, phytotoxicity rating (0-100 scale)",[13]; 125 g ai/ha,30
same,"RICE crop damage, phytotoxicity rating (0-100 scale)",[13]; 250 g ai/ha,35
same,ECHCG phytotoxicity rating (0-100 scale),[14]; 125 g ai/ha,0
same,ECHCG phytotoxicity rating (0-100 scale),[14]; 250 g ai/ha,0
same,AMBEL phytotoxicity rating (0-100 scale),[15]; 31.3 g ai/ha,65
same,AMBEL phytotoxicity rating (0-100 scale),[15]; 62.5 g ai/ha,65
same,AMBEL phytotoxicity rating (0-100 scale),[15]; [27],70
same,AMBEL phytotoxicity rating (0-100 scale),[15]; [28],70
same,SETVI phytotoxicity rating (0-100 scale),[16]; 31.3 g ai/ha,0
same,SETVI phytotoxicity rating (0-100 scale),[16]; 62.5 g ai/ha,0
same,SETVI phytotoxicity rating (0-100 scale),[16]; [27],0
same,SETVI phytotoxicity rating (0-100 scale),[16]; [28],0
same,IPOHE phytotoxicity rating (0-100 scale),[17]; 125 g ai/ha,80
same,IPOHE phytotoxicity rating (0-100 scale),[17]; 250 g ai/ha,80
same,SORHA phytotoxicity rating (0-100 scale),[18]; 125 g ai/ha,0
same,SORHA phytotoxicity rating (0-100 scale),[18]; 250 g ai/ha,0
same,CHEAL phytotoxicity rating (0-100 scale),[19]; 31.3 g ai/ha,98
same,CHEAL phytotoxicity rating (0-100 scale),[19]; 62.5 g ai/ha,98
same,CHEAL phytotoxicity rating (0-100 scale),[19]; [27],99
same,CHEAL phytotoxicity rating (0-100 scale),[19]; [28],100
same,DIGSA phytotoxicity rating (0-100 scale),[20]; 125 g ai/ha,0
same,DIGSA phytotoxicity rating (0-100 scale),[20]; 250 g ai/ha,0
same,AMARE phytotoxicity rating (0-100 scale),[21]; 31.3 g ai/ha,98
same,AMARE phytotoxicity rating (0-100 scale),[21]; 62.5 g ai/ha,98
same,AMARE phytotoxicity rating (0-100 scale),[21]; [27],99
same,AMARE phytotoxicity rating (0-100 scale),[21]; [28],100
same,CASOB phytotoxicity rating (0-100 scale),[22]; 31.3 g ai/ha,60
same,CASOB phytotoxicity rating (0-100 scale),[22]; 62.5 g ai/ha,70
same,CASOB phytotoxicity rating (0-100 scale),[22]; [27],75
same,CASOB phytotoxicity rating (0-100 scale),[22]; [28],75
same,ABUTH phytotoxicity rating (0-100 scale),[23]; 125 g ai/ha,98
same,ABUTH phytotoxicity rating (0-100 scale),[23]; 250 g ai/ha,100
same,"CORN crop damage, phytotoxicity rating (0-100 scale)",[24]; 125 g ai/ha,0
same,"CORN crop damage, phytotoxicity rating (0-100 scale)",[24]; 250 g ai/ha,0
same,"SOY crop damage, phytotoxicity rating (0-100 scale)",[25]; 125 g ai/ha,10
same,"SOY crop damage, phytotoxicity rating (0-100 scale)",[25]; 250 g ai/ha,15
same,"RICE crop damage, phytotoxicity rating (0-100 scale)",[26]; 125 g ai/ha,0
same,"RICE crop damage, phytotoxicity rating (0-100 scale)",[26]; 250 g ai/ha,25
